Measured values: ChEMBL document CHEMBL3853264 (Medchemcomm, 2016)

Tests used:
[1] = Drug excretion in bile of bile duct cannulated rat; type: ADME; conditions: read-out: Drug excretion
[2] = Toxicity in po dosed rat measured over 14 days; type: organism-based; conditions: in vivo
[3] = Plasma clearance in rat at 0.5 mg/kg, iv and 1 mg/kg, po; type: ADME, organism-based
[4] = Average plasma concentration in rat at 10 mg/kg, po administered as single dose measured on day 14; type: ADME, organism-based; conditions: in vivo
Cytochrome P450 3A4 = Cytochrome P450 3A4 (Homo sapiens, UniProt P08684); experiment: Inhibition of CYP3A4 (unknown origin); type: ADME
Sequence of Cytochrome P450 3A4 (P08684 whole entry): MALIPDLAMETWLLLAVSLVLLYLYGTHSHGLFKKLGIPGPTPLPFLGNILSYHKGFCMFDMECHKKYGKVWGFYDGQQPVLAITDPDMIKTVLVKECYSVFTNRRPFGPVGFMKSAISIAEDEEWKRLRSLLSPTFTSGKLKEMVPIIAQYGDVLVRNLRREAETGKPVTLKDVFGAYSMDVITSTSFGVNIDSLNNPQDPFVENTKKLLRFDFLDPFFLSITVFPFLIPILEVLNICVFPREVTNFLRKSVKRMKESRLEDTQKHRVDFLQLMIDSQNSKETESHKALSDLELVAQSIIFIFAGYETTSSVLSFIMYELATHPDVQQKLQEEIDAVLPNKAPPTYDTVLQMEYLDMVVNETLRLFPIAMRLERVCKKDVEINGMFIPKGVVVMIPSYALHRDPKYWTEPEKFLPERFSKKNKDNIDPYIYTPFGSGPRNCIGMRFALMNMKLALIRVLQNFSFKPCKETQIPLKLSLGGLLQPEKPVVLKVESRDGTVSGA

[5] = Oral bioavailability in rat at 1 mg/kg; type: ADME, organism-based; conditions: in vivo
[6] = Unbound clearance in rat at 0.76 mg/kg, iv and 2.3 mg/kg, po; type: ADME, organism-based; conditions: in vivo
[7] = Average plasma concentration in dog at 30 mg/kg, po administered as single dose measured on day 14; type: ADME, organism-based, Canis lupus familiaris; conditions: in vivo
[8] = Drug metabolism in human hepatocytes assessed as oxidation of chlorophenyl ring; type: ADME, cell-based, Hepatocyte
[9] = Half life in rat at 0.76 mg/kg, iv and 2.3 mg/kg, po; type: ADME, organism-based; conditions: in vivo
Cytochrome P450 1A2 = Cytochrome P450 1A2 (Homo sapiens, UniProt P05177); experiment: Inhibition of CYP1A2 (unknown origin); type: ADME
Sequence of Cytochrome P450 1A2 (P05177 whole entry): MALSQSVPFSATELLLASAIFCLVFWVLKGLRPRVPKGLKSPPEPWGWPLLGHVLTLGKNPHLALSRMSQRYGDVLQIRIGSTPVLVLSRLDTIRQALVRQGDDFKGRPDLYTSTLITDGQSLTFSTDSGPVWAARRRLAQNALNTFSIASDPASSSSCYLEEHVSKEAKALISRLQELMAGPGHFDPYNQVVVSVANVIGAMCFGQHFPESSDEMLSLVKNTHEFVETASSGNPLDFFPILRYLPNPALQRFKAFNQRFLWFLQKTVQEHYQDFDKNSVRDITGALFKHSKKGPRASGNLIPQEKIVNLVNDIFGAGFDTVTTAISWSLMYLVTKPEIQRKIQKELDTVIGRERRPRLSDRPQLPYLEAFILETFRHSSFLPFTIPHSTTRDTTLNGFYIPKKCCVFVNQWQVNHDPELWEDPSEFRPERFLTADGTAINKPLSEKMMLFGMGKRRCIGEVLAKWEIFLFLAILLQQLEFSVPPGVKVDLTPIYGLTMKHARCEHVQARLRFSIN

[10] = Renal clearance in dog; type: ADME, Canis lupus familiaris; conditions: in vivo
Rattus norvegicus [11] = experiment: Toxicity in rat assessed as increase in mitosis in collecting ducts at 300 mg/kg/day, po measured over 14 days by microscopic analysis; type: organism-based; conditions: in vivo, 336 h
[12] = Toxicity in dog assessed as histologic change in testes at 300 mg/kg/day, po measured over 14 days; type: organism-based, Canis lupus familiaris; conditions: in vivo, 336 h
[13] = Mutagenicity in […] by Ames test in presence of […] fraction; type: toxicity
[14] = Drug metabolism in dog assessed as loss of chlorobenzonitrile moiety in presence of glutathione; type: ADME, Canis lupus familiaris
[15] = Octanol-water partition co-efficient, log D of the compound by shake flask method; type: physicochemical
[16] = Volume of distribution at steady state in rat at 0.5 mg/kg, iv and 1 mg/kg, po; type: ADME, organism-based; conditions: in vivo, read-out: Vdss
Rattus norvegicus [17] = experiment: Cardiovascular toxicity in rat assessed as decrease in heart rate at 10 mg/kg, po measured over 14 days; type: organism-based; conditions: in vivo, 336 h
[18] = target: Organic anion transporter 3 (Homo sapiens, UniProt Q8TCC7); experiment: Inhibition of OAT3 (unknown origin)
Sequence of Organic anion transporter 3 (Q8TCC7 whole entry): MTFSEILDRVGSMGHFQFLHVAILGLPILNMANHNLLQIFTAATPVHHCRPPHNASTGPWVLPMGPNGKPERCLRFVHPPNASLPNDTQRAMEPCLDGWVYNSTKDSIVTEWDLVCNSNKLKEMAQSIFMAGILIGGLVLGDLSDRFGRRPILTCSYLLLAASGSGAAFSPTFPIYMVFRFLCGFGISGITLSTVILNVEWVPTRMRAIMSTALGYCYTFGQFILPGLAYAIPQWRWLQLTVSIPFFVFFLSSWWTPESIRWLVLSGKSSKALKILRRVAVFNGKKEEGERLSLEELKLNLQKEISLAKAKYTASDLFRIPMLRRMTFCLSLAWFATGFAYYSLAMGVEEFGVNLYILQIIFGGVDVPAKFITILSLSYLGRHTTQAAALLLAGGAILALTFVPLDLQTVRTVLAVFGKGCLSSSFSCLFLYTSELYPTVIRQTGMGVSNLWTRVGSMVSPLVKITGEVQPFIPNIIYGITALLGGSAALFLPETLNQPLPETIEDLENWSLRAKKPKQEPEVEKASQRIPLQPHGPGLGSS

[19] = Unbound Cmax in dog at 30 mg/kg, po administered as single dose measured on day 14; type: ADME, organism-based, Canis lupus familiaris; conditions: in vivo
[20] = Intrinsic clearance in dog liver microsomes; type: ADME, Canis lupus familiaris; conditions: read-out: CLH
[21] = target: Solute carrier organic anion transporter family member 2B1 (Homo sapiens, UniProt O94956); experiment: Drug uptake assessed as human OATP2B1-mediated drug accumulation by cell-based assay relative to wild type protein; type: ADME
Sequence of Solute carrier organic anion transporter family member 2B1 (O94956 whole entry): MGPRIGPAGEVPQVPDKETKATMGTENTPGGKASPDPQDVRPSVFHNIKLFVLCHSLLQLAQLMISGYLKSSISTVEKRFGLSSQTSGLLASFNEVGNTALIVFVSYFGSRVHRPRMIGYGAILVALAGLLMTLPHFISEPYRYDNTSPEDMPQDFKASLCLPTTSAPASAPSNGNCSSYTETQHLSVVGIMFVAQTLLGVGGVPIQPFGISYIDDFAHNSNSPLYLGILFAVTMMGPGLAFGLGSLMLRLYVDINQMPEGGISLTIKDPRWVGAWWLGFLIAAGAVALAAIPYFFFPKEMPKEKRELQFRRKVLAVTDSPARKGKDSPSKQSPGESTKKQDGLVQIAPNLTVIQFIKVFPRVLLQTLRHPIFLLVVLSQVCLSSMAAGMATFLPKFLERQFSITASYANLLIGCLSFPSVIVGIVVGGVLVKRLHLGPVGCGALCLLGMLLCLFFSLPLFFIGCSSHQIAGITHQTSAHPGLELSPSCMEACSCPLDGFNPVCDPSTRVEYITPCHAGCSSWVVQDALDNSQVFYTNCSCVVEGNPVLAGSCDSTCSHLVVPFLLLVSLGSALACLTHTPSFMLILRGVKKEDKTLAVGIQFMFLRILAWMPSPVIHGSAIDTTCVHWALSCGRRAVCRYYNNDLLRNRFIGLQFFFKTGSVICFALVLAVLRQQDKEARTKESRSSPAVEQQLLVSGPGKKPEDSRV

[22] = Intrinsic clearance in human liver microsomes; type: ADME; conditions: read-out: CLH

Structure (SMILES): N#Cc1ccc(Oc2ccc(S(=O)(=O)Nc3ccc(F)cn3)cc2C#N)cc1Cl
- dose excreted [1]: < 0.5%
- MTD at 336 h [2]: 100 mg/kg
- clearance [3]: 0.39 mL/min/kg
- Cave [4]: 41 nM
- IC50 (Cytochrome P450 3A4): 17.5 µM
- bioavailability [5]: 100%
- CL free [6]: 229 mL/min/kg
- Cave [7]: 3980 nM
- Drug metabolism [8]: Metabolite_Detected
- half-life [9]: 7.1 h
- IC50 (Cytochrome P450 1A2): > 30 µM
- CL renal [10]: 0.0001 mL/min/kg
- Activity (Rattus norvegicus [11]): Toxic
- Activity [12]: Toxic
- Activity [13]: Non-Toxic
- Drug metabolism [14]: Metabolite_Detected
- logD [15]: 1.8
- Vd [16]: 0.18 L/kg
- Activity (Rattus norvegicus [17]): Toxic
- IC50 [18]: 0.72 µM
- fCmax [19]: 7.419 µM
- microsomal CLint [20]: < 18 µL/min/mg
- fold change (FC) [21]: 1.232
- microsomal CLint [22]: < 13 µL/min/mg
